# Measured values as given in patent US7910751B2, “Heterocyclidene acetamide derivative” (Mochida Pharmaceutical Co., Ltd., priority 2005, dated 2011).
# Biological target: T1, human TRPV1 (Homo sapiens, UniProt Q8NER1)
# T1 construct: expressed in transfected cells; host or cells: CHO-K1
# Experiment: Measurement of capsaicin-induced Ca influx in human TRPV1 transformed CHO cell line using FDSS-6000
# Assay type: cell-based
# Conditions: concentration at which the capsaicin concentration-reaction curve is shifted two times to the right, human TRPV1 transformed CHO cells
# T1 sequence (Q8NER1 whole entry): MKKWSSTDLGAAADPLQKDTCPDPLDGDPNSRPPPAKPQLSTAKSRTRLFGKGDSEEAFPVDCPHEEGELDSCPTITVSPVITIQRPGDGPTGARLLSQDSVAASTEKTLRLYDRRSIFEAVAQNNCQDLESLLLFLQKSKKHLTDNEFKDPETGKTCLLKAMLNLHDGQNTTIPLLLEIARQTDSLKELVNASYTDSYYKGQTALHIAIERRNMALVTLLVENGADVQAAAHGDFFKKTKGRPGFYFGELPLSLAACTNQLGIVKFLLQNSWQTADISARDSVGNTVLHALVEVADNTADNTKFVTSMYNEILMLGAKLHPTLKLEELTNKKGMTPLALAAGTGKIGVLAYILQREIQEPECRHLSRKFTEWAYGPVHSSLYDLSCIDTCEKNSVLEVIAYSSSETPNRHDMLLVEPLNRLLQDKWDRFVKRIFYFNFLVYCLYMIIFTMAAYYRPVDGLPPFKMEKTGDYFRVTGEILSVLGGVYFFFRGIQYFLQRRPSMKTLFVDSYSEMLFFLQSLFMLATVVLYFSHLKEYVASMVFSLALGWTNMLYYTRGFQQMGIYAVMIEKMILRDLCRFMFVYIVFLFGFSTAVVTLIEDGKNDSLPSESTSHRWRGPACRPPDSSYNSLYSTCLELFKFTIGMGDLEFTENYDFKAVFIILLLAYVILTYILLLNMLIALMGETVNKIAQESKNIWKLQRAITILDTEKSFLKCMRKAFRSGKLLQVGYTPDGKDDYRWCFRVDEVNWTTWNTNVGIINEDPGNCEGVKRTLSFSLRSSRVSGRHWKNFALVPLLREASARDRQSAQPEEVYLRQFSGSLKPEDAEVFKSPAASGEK
row,SMILES,A2 VALUE
1,"O=C(/C=C1\CCCOc2cc(C(F)(F)F)ccc21)Nc1cccc2c1CC(O)CC2 (stereo not shown) [Example 62, (E)-2-(8-trifluoromethyl-3,4-dihydrobenzo[b]oxepin-5-(2H)-ylidene)-N-(7-hydroxy-5,6,7,8-tetrahydronaphthalen-1-yl)acetamide]",A (compounds of the present invention having an A2 value of less than 100 nM are represented by A)
2,"O=C(/C=C1\CCCOc2cc(C(F)(F)F)ccc21)Nc1ccc(S(=O)(=O)N2CCOCC2)cc1 [Example 26, (E)-2-(8-trifluoromethyl-3,4-dihydrobenzo[b]oxepin-5(2H)-ylidene)-N-(4-(4-morpholinylsulfonyl)phenyl)acetamide]",B (compounds having an A2 value of 100 nM or more are represented by B)
3,"CC(F)(F)CC(=O)N1CC/C(=C\C(=O)Nc2cccc3c2CC(O)CC3)c2ccc(C(F)(F)F)cc21 (stereo not shown) [Example 116, (E)-2-(1-(3,3-difluorobutanoyl)-7-trifluoromethyl-2,3-dihydroquinolin-4(1H)-ylidene)-N-(7-hydroxy-5,6,7,8-tetrahydronaphthalen-1-yl)acetamide]",A (compounds of the present invention having an A2 value of less than 100 nM are represented by A)
4,"O=C(/C=C1\CCCOc2cc(C(F)(F)F)ccc21)Nc1cccc2c1CCC2O (stereo not shown) [Example 160, (E)-2-(8-trifluoromethyl-3,4-dihydrobenzo[b]oxepin-5(2H)-ylidene)-N-(indan-1-ol-4-yl)acetamide]",A (compounds of the present invention having an A2 value of less than 100 nM are represented by A)
5,"CC1(C)C/C(=C\C(=O)Nc2cccc3c2CC(O)CN3)c2ccc(C(F)(F)F)cc2O1 (stereo not shown) [Example 246, (E)-2-(7-trifluoromethyl-2,2-dimethylchroman-4-ylidene)-N-(3-hydroxy-1,2,3,4-tetrahydroquinolin-5-yl)acetamide]",A (compounds of the present invention having an A2 value of less than 100 nM are represented by A)
6,"O=C(/C=C1\CCOc2cc(OC(F)(F)C(F)F)ccc21)Nc1cccc2c1CC(O)CN2 (stereo not shown) [Example 213, (E)-2-(7-(1,1,2,2-tetrafluoroethoxy)-chroman-4-ylidene)-N-(3-hydroxy-1,2,3,4-tetrahydroquinolin-5-yl)acetamide]",A (compounds of the present invention having an A2 value of less than 100 nM are represented by A)
7,"O=C(/C=C1\CCCOc2cc(C(F)(F)F)ccc21)NC(c1ccccc1)c1ccccn1 (stereo not shown) [Example 31, (E)-2-(8-trifluoromethyl-3,4-dihydrobenzo[b]oxepin-5(2H)-ylidene)-N-(phenyl(pyridin-2-yl)methyl)acetamide]",B (compounds having an A2 value of 100 nM or more are represented by B)
8,"CC1(C)N/C(=C\C(=O)Nc2cccc3c2CC(O)CC3)c2ccc(C(F)(F)F)cc2O1 (stereo not shown) [Example 240, (Z)-2-(6-trifluoromethyl-3,3-dimethyl-4-oxa-3,4-dihydro-(2H)-isoquinolin-1-ylidene)-N-(7-hydroxy-5,6,7,8-tetrahydronaphthalen-1-yl)acetamide]",A (compounds of the present invention having an A2 value of less than 100 nM are represented by A)
9,"Cc1cc(NC(=O)/C=C2\CCCOc3cc(C(F)(F)F)ccc32)n(C(C)(C)C)n1 [Example 46, (E)-N-(1-tert-butyl-3-methyl-1H-pyrazolo-5-yl)-2-(8-trifluoromethyl-3,4-dihydrobenzo[b]oxepin-5(2H)-ylidene)acetamide]",B (compounds having an A2 value of 100 nM or more are represented by B)
10,"O=C(/C=C1\CCCOc2cc(C(F)(F)F)ccc21)Nc1ccc2c(c1)C(=O)N(CCO)C2 [Example 176, (E)-2-(8-trifluoromethyl-3,4-dihydrobenzo[b]oxepin-5(2H)-ylidene)-N-(2-hydroxyethyl-2,3-dihydro-isoindol-1-on-6-yl)acetamide]",B (compounds having an A2 value of 100 nM or more are represented by B)
11,"O=CN1CC/C(=C\C(=O)Nc2cccc3c2CC(O)CC3)c2ccc(C(F)(F)F)cc21 (stereo not shown) [Example 114, (E)-2-(1-formyl-7-trifluoromethyl-2,3-dihydroquinolin-4(1H)-ylidene)-N-(7-hydroxy-5,6,7,8-tetrahydronaphthalen-1-yl)acetamide]",A (compounds of the present invention having an A2 value of less than 100 nM are represented by A)
12,"O=C(/C=C1\CCCOc2cc(C(F)(F)F)ccc21)Nc1ccc2cc[nH]c2c1 [Example 137, (E)-2-(8-trifluoromethyl-3,4-dihydrobenzo[b]oxepin-5(2H)-ylidene)-N-(indol-6-yl)acetamide]",A (compounds of the present invention having an A2 value of less than 100 nM are represented by A)
13,"O=C(/C=C1\CCCOc2cc(C(F)(F)F)ccc21)Nc1cccc2c1CC1OC1C2 (stereo not shown) [Example 169, (E)-2-(8-trifluoromethyl-3,4-dihydrobenzo[b]oxepin-5(2H)-ylidene)-N-(1a,2,7,7a-tetrahydronaphtho[b]oxiren-3-yl)acetamide]",A (compounds of the present invention having an A2 value of less than 100 nM are represented by A)
14,"O=C(/C=C1\CCN(c2ncc(CO)cc2Cl)c2cc(C(F)(F)F)ccc21)Nc1cccc2c1CC(O)CC2 (stereo not shown) [Example 200, (E)-2-(1-(3-chloro-5-hydroxymethyl-pyridin-2-yl)-7-trifluoromethyl-2,3-dihydroquinolin-4(1H)-ylidene)-N-(7-hydroxy-5,6,7,8-tetrahydronaphthalen-1-yl)acetamide]",A (compounds of the present invention having an A2 value of less than 100 nM are represented by A)
15,"CCCC(C)C(=O)N1CC/C(=C\C(=O)Nc2ccc3cccnc3c2)c2ccc(C(F)(F)F)cc21 (stereo not shown) [Example 80, (E)-2-(1-(2-methylpentanoyl)-7-trifluoromethyl-2,3-dihydroquinolin-4(1H)-ylidene)-N-(quinolin-7-yl)acetamide]",A (compounds of the present invention having an A2 value of less than 100 nM are represented by A)
16,"O=C(/C=C1\CCCOc2cc(C(F)(F)F)ccc21)Nc1ccc2c(c1)OC(CO)CO2 (stereo not shown) [Example 165, (E)-2-(8-trifluoromethyl-3,4-dihydrobenzo[b]oxepin-5(2H)-ylidene)-N-(3-hydroxymethyl-2,3-dihydro-1,4-benzodioxin-6-yl)acetamide]",A (compounds of the present invention having an A2 value of less than 100 nM are represented by A)
17,"O=C(/C=C1\CCN(C(=O)C2CCC2)c2cc(C(F)(F)F)ccc21)Nc1ccc2cccnc2c1 [Example 75, (E)-2-(1-cyclobutanecarbonyl-7-trifluoromethyl-2,3-dihydroquinolin-4(1H)-ylidene)-N-(quinolin-7-yl)acetamide]",A (compounds of the present invention having an A2 value of less than 100 nM are represented by A)
18,"O=C(/C=C1\CCN(C(=O)C2(F)CCCC2)c2cc(C(F)(F)F)ccc21)Nc1cccc2c1CC(O)CC2 (stereo not shown) [Example 115, (E)-2-(1-(1-fluorocyclopentanecarbonyl)-7-trifluoromethyl-2,3-dihydroquinolin-4(1H)-ylidene)-N-(7-hydroxy-5,6,7,8-tetrahydronaphthalen-1-yl)acetamide]",A (compounds of the present invention having an A2 value of less than 100 nM are represented by A)
19,"CC(NC(=O)/C=C1\CCCOc2cc(C(F)(F)F)ccc21)c1ccccn1 (stereo not shown) [Example 30, (E)-2-(8-trifluoromethyl-3,4-dihydrobenzo[b]oxepin-5(2H)-ylidene)-N-(1-(pyridin-2-yl)ethyl)acetamide]",B (compounds having an A2 value of 100 nM or more are represented by B)
20,"O=C(/C=C1\CCCOc2cc(C(F)(F)F)ccc21)Nc1cccc2c1CC(O)CC2 (stereo not shown) [Example 63, (E)-2-(8-trifluoromethyl-3,4-dihydrobenzo[b]oxepin-5-(2H)-ylidene)-N-(7-hydroxy-5,6,7,8-tetrahydronaphthalen-1-yl)acetamide]",A (compounds of the present invention having an A2 value of less than 100 nM are represented by A)
21,"O=C(/C=C1\CCCOc2cc(C(F)(F)F)ccc21)Nc1n[nH]c2ccccc12 [Example 42, (E)-2-(8-trifluoromethyl-3,4-dihydrobenzo[b]oxepin-5(2H)-ylidene)-N-(1H-indazol-3-yl)acetamide]",B (compounds having an A2 value of 100 nM or more are represented by B)
22,"O=C(/C=C1\CCCOc2cc(C(F)(F)F)ccc21)Nc1cccc2cnccc12 [Example 11, (E)-2-(8-trifluoromethyl-3,4-dihydrobenzo[b]oxepin-5(2H)-ylidene)-N-(isoquinolin-5-yl)acetamide]",A (compounds of the present invention having an A2 value of less than 100 nM are represented by A)
23,"COC(=O)CCC(=O)N1CC/C(=C\C(=O)Nc2ccc3cccnc3c2)c2ccc(C(F)(F)F)cc21 [Example 101, (E)-2-(7-trifluoromethyl-2,3-dihydro-1-(3-(carbomethoxy)propanoyl)quinolin-4(1H)-ylidene)-N-(quinolin-7-yl)acetamide]",A (compounds of the present invention having an A2 value of less than 100 nM are represented by A)
24,"O=C(/C=C1\CCN(C(=O)C2CC2)c2cc(C(F)(F)F)ccc21)Nc1ccc2cccnc2c1 [Example 99, (E)-2-(7-trifluoromethyl-2,3-dihydro-1-cyclopropanecarbonylquinolin-4(1H)-ylidene)-N-(quinolin-7-yl)acetamide]",A (compounds of the present invention having an A2 value of less than 100 nM are represented by A)
25,"O=C(/C=C1\CCOc2cc(C(F)(F)F)ccc21)Nc1cccc2c1CC(O)CC2 (stereo not shown) [Example 70, (E)-2-(7-trifluoromethyl-chroman-4-ylidene)-N-(7-hydroxy-5,6,7,8-tetrahydronaphthalen-1-yl)acetamide]",A (compounds of the present invention having an A2 value of less than 100 nM are represented by A)
